In patent publication US10308643B2, “Heterocyclic compound” (Takeda Pharmaceutical Company Limited, priority 2015, dated 2019):

Experiments:
Format in all cases: biochemical
HDAC1 enzyme = target: T1, HDAC1 enzyme (Homo sapiens, UniProt Q13547); test: HDAC1/6 Enzyme Inhibitory Assay (HDAC-Glo I/II Assay kit), HDAC1; settings: 1 μM test compound; wells without enzyme = 100% inhibition; read-out: HDAC1 inhibitory rate (%) (1 μM)
T1 construct: transducing full length HDAC1 and HDAC6 genes into Sf-9 insect cells; GST; purchased SignalChem; host or cells: Sf-9 insect cells
T1 sequence (Q13547 whole entry): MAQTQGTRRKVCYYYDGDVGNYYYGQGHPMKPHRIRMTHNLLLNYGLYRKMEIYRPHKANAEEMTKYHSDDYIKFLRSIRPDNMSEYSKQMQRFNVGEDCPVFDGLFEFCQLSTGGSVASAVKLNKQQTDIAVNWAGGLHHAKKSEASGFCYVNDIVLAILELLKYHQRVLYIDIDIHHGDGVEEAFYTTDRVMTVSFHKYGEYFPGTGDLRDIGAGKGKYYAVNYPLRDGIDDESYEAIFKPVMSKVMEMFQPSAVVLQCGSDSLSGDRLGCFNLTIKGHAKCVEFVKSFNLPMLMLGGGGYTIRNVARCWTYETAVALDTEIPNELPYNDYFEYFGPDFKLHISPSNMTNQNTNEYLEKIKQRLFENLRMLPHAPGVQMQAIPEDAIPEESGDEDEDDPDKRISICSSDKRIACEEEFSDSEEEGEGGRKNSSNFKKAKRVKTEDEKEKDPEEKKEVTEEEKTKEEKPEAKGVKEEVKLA
How it was run: (§1)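 Full-length human HDAC1 or HDAC6, GST-purified from Sf-9 cells, was preincubated with compound for 60 min at room temperature in Tris-HCl pH 7.5 buffer with MgCl2, KCl, NaCl, glutathione and Tween-20. HDAC-Glo I/II substrate-developer was then added and reacted for 20 min before luminescence was read. Inhibition was set relative to no-enzyme wells as 100% inhibition.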

HDAC9 enzyme = target: T2, HDAC9 enzyme (Homo sapiens, UniProt Q9UKV0); test: HDAC9 Enzyme Inhibitory Assay (HDAC-Glo class IIa); settings: 1 μM test compound; wells without enzyme = 100% inhibition; read-out: HDAC9 inhibitory rate (%) (1 μM)
T2 construct: transducing full length HDAC9 gene into Sf-9 insect cells; made in house; host or cells: Sf-9 insect cells
T2 sequence (Q9UKV0 whole entry, species assumed): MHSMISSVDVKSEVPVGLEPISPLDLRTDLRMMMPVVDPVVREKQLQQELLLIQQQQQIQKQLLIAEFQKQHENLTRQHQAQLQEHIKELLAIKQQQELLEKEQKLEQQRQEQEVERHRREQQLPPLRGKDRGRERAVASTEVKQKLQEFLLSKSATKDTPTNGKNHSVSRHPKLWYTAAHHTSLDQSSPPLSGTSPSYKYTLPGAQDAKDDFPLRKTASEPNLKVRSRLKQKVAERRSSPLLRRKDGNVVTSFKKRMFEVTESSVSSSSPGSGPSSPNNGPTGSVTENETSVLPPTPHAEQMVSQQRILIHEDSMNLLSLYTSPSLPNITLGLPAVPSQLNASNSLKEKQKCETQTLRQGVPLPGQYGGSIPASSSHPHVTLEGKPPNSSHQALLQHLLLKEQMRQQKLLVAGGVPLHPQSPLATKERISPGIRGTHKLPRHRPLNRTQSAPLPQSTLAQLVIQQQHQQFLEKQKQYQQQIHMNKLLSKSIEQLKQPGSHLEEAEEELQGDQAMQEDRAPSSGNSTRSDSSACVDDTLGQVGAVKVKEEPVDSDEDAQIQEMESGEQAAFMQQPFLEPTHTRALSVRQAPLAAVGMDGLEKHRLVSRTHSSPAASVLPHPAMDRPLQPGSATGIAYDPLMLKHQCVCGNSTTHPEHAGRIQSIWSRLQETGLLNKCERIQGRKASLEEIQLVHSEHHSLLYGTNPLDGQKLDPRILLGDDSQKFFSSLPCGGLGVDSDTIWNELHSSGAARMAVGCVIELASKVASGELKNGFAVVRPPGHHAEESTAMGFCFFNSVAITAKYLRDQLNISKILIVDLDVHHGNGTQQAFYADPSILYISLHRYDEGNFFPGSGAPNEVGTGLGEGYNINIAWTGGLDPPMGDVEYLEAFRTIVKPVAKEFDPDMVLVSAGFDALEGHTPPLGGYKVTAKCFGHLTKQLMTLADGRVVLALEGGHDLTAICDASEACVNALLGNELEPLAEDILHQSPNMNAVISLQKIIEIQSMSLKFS
How it was run: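 Luminescent HDAC-Glo class IIa readout after a 20 min room-temperature reaction; relative inhibition referenced to enzyme-free wells as 100%. Test compound first preincubated 60 min with Sf-9-expressed, Ni-NTA-purified full-length HDAC9 in pH 7.5 Tris buffer containing 135 mM NaCl, 0.6 mM glutathione and 0.01% Tween-20.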

HDAC6 enzyme = target: T3, HDAC6 enzyme (Homo sapiens, UniProt Q9UBN7); test: HDAC1/6 Enzyme Inhibitory Assay (HDAC-Glo I/II Assay kit), HDAC6; settings: 1 μM test compound; wells without enzyme = 100% inhibition; read-out: HDAC6 inhibitory rate (%) (1 μM)
T3 construct: transducing full length HDAC1 and HDAC6 genes into Sf-9 insect cells; GST; purchased SignalChem; host or cells: Sf-9 insect cells
T3 sequence (Q9UBN7 1-1215): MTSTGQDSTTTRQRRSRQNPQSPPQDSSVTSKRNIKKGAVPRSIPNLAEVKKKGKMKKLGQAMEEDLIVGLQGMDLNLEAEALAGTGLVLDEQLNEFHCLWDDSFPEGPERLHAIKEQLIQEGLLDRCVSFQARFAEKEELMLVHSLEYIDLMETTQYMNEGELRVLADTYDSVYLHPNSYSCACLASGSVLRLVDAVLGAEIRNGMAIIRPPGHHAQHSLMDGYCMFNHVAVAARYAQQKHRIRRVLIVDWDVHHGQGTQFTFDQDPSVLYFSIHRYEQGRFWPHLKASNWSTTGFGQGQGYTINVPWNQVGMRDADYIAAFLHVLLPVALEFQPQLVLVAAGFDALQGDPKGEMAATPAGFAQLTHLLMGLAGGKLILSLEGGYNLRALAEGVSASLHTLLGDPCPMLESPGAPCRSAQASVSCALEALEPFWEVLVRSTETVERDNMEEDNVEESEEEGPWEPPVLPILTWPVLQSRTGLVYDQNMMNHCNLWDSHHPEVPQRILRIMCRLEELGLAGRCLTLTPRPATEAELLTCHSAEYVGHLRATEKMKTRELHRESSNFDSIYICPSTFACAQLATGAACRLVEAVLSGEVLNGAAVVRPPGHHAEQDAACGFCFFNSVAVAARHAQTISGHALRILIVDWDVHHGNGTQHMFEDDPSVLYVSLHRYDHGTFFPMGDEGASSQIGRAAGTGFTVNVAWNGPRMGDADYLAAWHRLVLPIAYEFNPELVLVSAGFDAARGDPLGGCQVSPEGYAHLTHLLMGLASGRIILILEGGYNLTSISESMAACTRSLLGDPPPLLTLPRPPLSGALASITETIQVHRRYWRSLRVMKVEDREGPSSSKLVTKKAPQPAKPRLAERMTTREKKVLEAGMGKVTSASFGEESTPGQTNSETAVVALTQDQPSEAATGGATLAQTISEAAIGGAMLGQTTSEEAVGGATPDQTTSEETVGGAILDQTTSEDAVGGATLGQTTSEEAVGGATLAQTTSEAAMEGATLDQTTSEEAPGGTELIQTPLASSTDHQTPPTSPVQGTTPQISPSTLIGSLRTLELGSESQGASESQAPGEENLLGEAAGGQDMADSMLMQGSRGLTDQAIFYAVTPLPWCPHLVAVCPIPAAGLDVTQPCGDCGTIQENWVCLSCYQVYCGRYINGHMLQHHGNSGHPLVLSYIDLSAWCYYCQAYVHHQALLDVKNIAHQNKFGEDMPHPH
How it was run: as §1

Row | SMILES | inhibition at 1 µM (HDAC1 enzyme) [%] | inhibition at 1 µM (HDAC9 enzyme) [%] | inhibition at 1 µM (HDAC6 enzyme) [%]
1 | O=C1c2cc(-c3noc(C(F)(F)F)n3)ccc2CN1[C@@H]1CCCC[C@H]1NC(=O)C1(c2ccccc2)COC1 [Example 134, N-((1R,2R)-2-(1-oxo-6-(5-(trifluoromethyl)-1,2,4-oxadiazol-3-yl)-1,3-dihydro-2H-isoindol-2-yl)cyclohexyl)-3-phenyloxetane-3-carboxamide] | -5 | 36 | 99
2 | O=C1c2cc(-c3noc(C(F)(F)F)n3)ccc2CN1[C@@H]1COCC[C@H]1O [Example 179, 1,5-anhydro-2,4-dideoxy-2-(1-oxo-6-(5-(trifluoromethyl)-1,2,4-oxadiazol-3-yl)-1,3-dihydro-2H-isoindol-2-yl)-D-threo-pentitol] | 11 | 84 | 90
3 | N#Cc1ccccc1C(=O)N[C@@H]1CCCC[C@H]1N1Cc2ccc(-c3noc(C(F)(F)F)n3)cc2C1=O [Example 106, 2-cyano-N-((1R,2R)-2-(1-oxo-6-(5-(trifluoromethyl)-1,2,4-oxadiazol-3-yl)-1,3-dihydro-2H-isoindol-2-yl)cyclohexyl)benzamide] | 58 | 88 | 101
4 | N#CC12CC(C(=O)N[C@@H]3CCCC[C@H]3N3Cc4ccc(-c5noc(C(F)(F)F)n5)cc4C3=O)(C1)C2 [Example 160, 3-cyano-N-((1R,2R)-2-(1-oxo-6-(5-(trifluoromethyl)-1,2,4-oxadiazol-3-yl)-1,3-dihydro-2H-isoindol-2-yl)cyclohexyl)bicyclo[1.1.1]pentane-1-carboxamide] | 11 | 38 | 99
5 | O=C1NCCC1C(=O)N[C@@H]1CCCC[C@H]1N1Cc2ccc(-c3noc(C(F)(F)F)n3)cc2C1=O (stereo partly drawn) [Example 108, 2-oxo-N-((1Rr2R)-2-(1-oxo-6-(5-(trifluoromethyl)-l ,2,4-oxadiazol-3-yl)-1,3-dihydro-2H-isoindol-2-yl)cyclohexyl)pyrrolidine-3-carboxamide] | 2 | 35 | 97
6 | O=C1c2cc(-c3noc(C(F)(F)F)n3)ccc2CN1[C@@H]1CCCC[C@H]1NC(=O)C1(O)CCC1 [Example 173, 1-hydroxy-N-((1R,2R)-2-(1-oxo-6-(5-(trifluoromethyl)-1,2,4-oxadiazol-3-yl)-1,3-dihydro-2H-isoindol-2-yl)cyclohexyl) cyclobutanecarboxamide] | 5 | 42 | 100
7 | O=C(Cc1ccc(F)cc1)N1CCCC(N2Cc3ncc(-c4noc(C(F)(F)F)n4)cc3C2=O)C1 (stereo not drawn) [Example 41, 6-(1-((4-fluorophenyl)acetyl)piperidin-3-yl)-3-(5-(trifluoromethyl)-1,2,4-oxadiazol-3-yl)-6,7-dihydro-5H-pyrrolo[3,4-b]pyridin-5-one] | 37 | 94 | 93
8 | O=C(N[C@H]1CCCC[C@H]1N1Cc2ccc(-c3noc(C(F)(F)F)n3)cc2C1=O)C1CC1 [Example 86, N-((1S,2R)-2-(1-oxo-6-(5-(trifluoromethyl)-1,2,4-oxadiazol-3-yl)-1,3-dihydro-2H-isoindol-2-yl)cyclohexyl) cyclopropanecarboxamide] | 80 | 92 | 98
9 | O=C(Cc1cc(=O)[nH][nH]1)N[C@@H]1CCCC[C@H]1N1Cc2ccc(-c3noc(C(F)(F)F)n3)cc2C1=O [Example 117, 2-(5-oxo-2,5-dihydro-1H-pyrazol-3-yl)-N-((1R,2R)-2-(1-oxo-6-(5-(trifluoromethyl)-1,2,4-oxadiazol-3-yl)-1,3-dihydro-2H-isoindol-2-yl)cyclohexyl)acetamide] | 4 | 27 | 97
10 | O=C1c2cc(-c3noc(C(F)(F)F)n3)ccc2CN1[C@@H]1CCNC[C@H]1c1cccc(Cl)c1 (relative stereo) [Example 53, 2-(trans-3-(3-chlorophenyl)piperidin-4-yl)-6-(5-(trifluoromethyl)-1,2,4-oxadiazol-3-yl)isoindolin-1-one] | 98 | 99 | 97
11 | Cc1cc(F)ccc1[C@@H]1CNCC[C@H]1N1Cc2ccc(-c3noc(C(F)(F)F)n3)cc2C1=O (relative stereo) [Example 50, 2-(trans-3-(4-fluoro-2-methylphenyl)piperidin-4-yl)-6-(5-(trifluoromethyl)-1,2,4-oxadiazol-3-yl)isoindolin-1-one] | 93 | 99 | 98
12 | O=C(CN1CCCC1=O)N[C@@H]1CCCC[C@H]1N1Cc2ccc(-c3noc(C(F)(F)F)n3)cc2C1=O [Example 121, 2-(2-oxopyrrolidin-1-yl)-N-((1R,2R)-2-(1-oxo-6-(5-(trifluoromethyl)-1,2,4-oxadiazol-3-yl)-1,3-dihydro-2H-isoindol-2-yl)cyclohexyl)acetamide] | 3 | 40 | 89
13 | O=C1c2cc(-c3noc(C(F)(F)F)n3)ccc2CN1[C@@H]1CCNC[C@H]1c1ccc(Cl)c(F)c1 (relative stereo) [Example 52, 2-(trans-3-(4-chloro-3-fluorophenyl)piperidin-4-yl)-6-(5-(trifluoromethyl)-1,2,4-oxadiazol-3-yl)isoindolin-1-one] | 97 | 99 | 97
14 | O=C1CCC(C(=O)N[C@@H]2CCCC[C@H]2N2Cc3ccc(-c4noc(C(F)(F)F)n4)cc3C2=O)=NN1 [Example 118, 6-oxo-N-((1R,2R)-2-(1-oxo-6-(5-(trifluoromethyl)-1,2,4-oxadiazol-3-yl)-1,3-dihydro-2H-isoindol-2-yl)cyclohexyl)-1,4,5,6-tetrahydropyridazine-3-carboxamide] | 5 | 46 | 98
15 | O=C(N[C@@H]1CCOC[C@H]1N1Cc2ccc(-c3noc(C(F)(F)F)n3)cc2C1=O)[C@H]1CCOC1 [Example 208, (3S)-N-((3S,4R)-3-(1-oxo-6-(5-(trifluoromethyl)-1,2,4-oxadiazol-3-yl)-1,3-dihydro-2H-isoindol-2-yl)tetrahydro-2H-pyran-4-yl)tetrahydrofuran-3-carboxamide] | 4 | 53 | 98
16 | O=C1c2cc(-c3noc(C(F)(F)F)n3)ccc2CN1[C@@H]1CCNC[C@H]1c1ccc(F)c(Cl)c1 (relative stereo) [Example 54, 2-(trans-3-(3-chloro-4-fluorophenyl)piperidin-4-yl)-6-(5-(trifluoromethyl)-1,2,4-oxadiazol-3-yl)isoindolin-1-one] | 93 | 99 | 100
17 | O=C(N[C@@H]1CCCC[C@H]1N1Cc2ccc(-c3noc(C(F)(F)F)n3)cc2C1=O)[C@@H]1CC1(F)F [Example 147, (1S)-2,2-difluoro-N-((1R,2R)-2-(1-oxo-6-(5-(trifluoromethyl) -1,2,4-oxadiazol-3-yl)-1,3-dihydro-2H-isoindol-2-yl)cyclohexyl)cyclopropanecarboxamide] | 6 | 51 | 99
